According to patent US4798898A, “Antitussive and mucus regulating 2-substituted thiazolidines” (Boehringer Biochemia Robin S.p.A., priority 1984, dated 1989):
Structures can show the parent of a compound that is named as a salt. Values belong to the compound of their own block, whether it stands above or below them.

Columns and labels:
[1] = tested on: cough induced by citric acid aerosol in guinea pigs; test: Guinea pig cough test (citric acid aerosol, Charlier procedure); type: in vivo; conditions: for ED50: guinea pig cough test, i.p., 60 minutes after treatment, 60 min
Procedure: (§1) The techniques described by Charlier et al. (Arch. Int. Pharmacodyn. 134, 306, 1961) and by Stefko et al. (J. Pharm. Exp. Therap., 108, 217, 1953), adapted with minor modifications, are used to investigate the antitussive properties of the compounds of the invention. Codeine phosphate is used as positive reference compound.
According to the Charlier procedure guinea pigs are exposed to a citric acid aerosol (7.5%) and cough is recorded 60 minutes after the antitussive treatment by i.p. route. Male animals of 300-400 g pigs are placed in perspex box (20×30×30 cm) connected to an aerosol compressor; the animals are subjected to a citric acid saturated atmosphere, 60 minutes after the i.p. injection of a compound of the invention (0.1 and 0.3M solutions; 1 ml/kg).
The total number of cough strokes and the delay of the first cough are recorded during the first five minutes.
Five guinea pigs are used for each dose level and the results are compared with controls (vehicle treatment) and codeine phosphate 0.07M solution (standard treatment).
ED50 and the corresponding delay of first cough stroke are calculated.
The data obtained by i.p. administration are confirmed by oral administration.

[2] = tested on: cough induced by electric stimulation in dogs; test: Dog cough test (cough induced by electric stimulation, Stefko procedure); type: in vivo, conscious mongrel dogs; conditions: for duration of action: in words; for duration of action (antitussive): test not named
Procedure: as §1
In the Stefko procedure, conscious mongrel dogs (15±3 kg body weight) are used; the compounds of the invention are tested for their ability to inhibit cough induced by electric stimulation.
Under general anesthesia, two insulated nichrome wires (0.4 mm diameter) are surgically implanted into the submucosa of the trachea.
About two days later, the dogs are placed in a sling and the exteriorized electrodes are connected to an electric stimulating device (such as Grass S 48 Mod.).
The stimulation parameters such as: delay 0.01 msec, duration 1 msec, frequency 30 Hz, are used.
An electrical stimulus of 1 sec is applied 10 times at 5 sec intervals in order to determine the minimum voltage necessary for eliciting reproducible cough responses. Then, tussive responses to the electrical stimuli are registered at 15, 30, 60, 90, 120, 150, 180, 240, 300 and 360 minutes after oral administration of the compounds of the invention.
The tussive responses are scored as follows: 1: no response; 2: sigh or exaggerated expiration; 3: marked cough; 4: one marked cough and one exaggerated expiration: 5: two marked coughs.
Six dogs are employed for each determination and the mean activity is calculated.
The inhibition percent of the cough response and the duration of activity are compared with codeine.

[3] = tested on: pathological sputum of bronchitic rabbits; test: Mucus regulating properties in bronchitic rabbits (sputum AUC as % compared to bronchitic controls); type: in vivo, male New Zealand white rabbits; conditions: for Fucose (mg/ml), AUC as a 100% compared to bronchitic controls / Galactose (mg/ml), AUC as a 100% compared to bronchitic controls / Mucus production (ml/kg), AUC as a 100% compared to bronchitic controls / Phospholipids (mg/ml), AUC as a 100% compared to bronchitic controls / Protein (mg/ml), AUC as a 100% compared to bronchitic controls / Sialic acid (mg/ml), AUC as a 100% compared to bronchitic controls / Viscosity (cps), AUC as a 100% compared to bronchitic controls: Table 2, oral, equimolecular amounts to S-carboxymethyl cysteine; for mucus regulating activity (in words): rabbit, in vivo
Procedure: The animals are submitted to inhalation of a 5% H2 SO3 aqueous solution by aerosol (exposition of 3 hours a day for 3 alternate days), to induce a chronic bronchial inflammatory disease which causes a production of pathological sputum in the bronchial tree.
Aim of the experiments is to evaluate modifications of selective parameters such as dry weight of the sputum, viscosity, content in proteins, phospholipids, galactose, sialic acid and fucose, induced in this pathological sputum by pharmacological treatment with the compounds of the invention.
To this purpose, the sputum produced in the bronchial tree is collected daily, through a "T" shaped glass cannula, inserted in the trachea, before and after oral twice a day (9.00 a.m. and 4.00 p.m.) treatment with one of the compounds of the invention.
The schedule treatment procedure is shown in the following Scheme 1: [drawing 21] where 0 indicates the day of implantation of the tracheal cannula; -7-5-3 indicate the days of H2 SO3 treatment (H); 1, 2, 3, 4 indicate the days of oral administration of the compounds of the invention (T) and the time of mucus collection (M).
The mucus collected in day 1 in the morning is considered as a blank; 7 indicates the day of the animal sacrifice after the mucous collection.
The sputum samples are stored in the freezer (-20° C.) until the investigation of biological and rheological parameters is carried out.
The samples are investigated for relative viscosity, measured at 37° C. with a Brookfield viscometer (model LT VD) equipped with a 1,565° cone-plate, and aliquoted for biochemical analysis of protein, phospholipids, galactose, sialic acid and fucose contents. Dry weight of the mucus is also determined. For each parameter, cumulative data are referred to a seven days period after the beginning of the treatment and they are extrapolated using the AUC method (area under curve) calculated by the trapazoidal rule. Finally the data are compared with data obtained from controls (vehicle treatment), non bronchitic rabbits (vehicle treatment) and positive controls bronchitic rabbits treated with 0.153M […].

[4] = tested on: cough induced by citric acid aerosol in guinea pigs; test: Guinea pig cough test (citric acid aerosol, Charlier procedure); type: in vivo; conditions: Cavia porcellus, inhaled or nasal, antitussive test not given
[5] = tested on: guinea pig trachea smooth muscle strips; test: In vitro relaxation of guinea pig trachea smooth muscle strips contracted by methacoline; conditions: for EC50: Cavia porcellus, contracted by methacoline, read-out: ED50 (relaxation of trachea smooth muscle strips)
[6] = tested on: bronchospasm induced by i.v. histamine; test: Resolution of bronchospasm induced by i.v. histamine in anesthetized guinea-pigs (Konzett-Ressler test); type: in vivo; conditions: intrajugular administration; more active than aminophylline
mice = test: Sedative effect; type: in vivo
Acute toxicity in mice = conditions: mouse, in vivo

Compound: COc1ccccc1OCC1SCCN1C(=O)C1CC1 (stereo not drawn) [3-cyclopropylcarbonyl-2-(o-methoxyphenoxy)methylthiazolidine]
antitussive properties (in words) [1]: devoid of any antitussive properties
antitussive properties (in words) ([2]; dog cough test): devoid of any antitussive properties
Fucose (mg/ml), AUC as a 100% compared to bronchitic controls [3]: 103.6%
Galactose (mg/ml), AUC as a 100% compared to bronchitic controls [3]: 60.0%
Mucus production (ml/kg), AUC as a 100% compared to bronchitic controls [3]: 90%
Phospholipids (mg/ml), AUC as a 100% compared to bronchitic controls [3]: 74.5%
Protein (mg/ml), AUC as a 100% compared to bronchitic controls [3]: 57.9%
Sialic acid (mg/ml), AUC as a 100% compared to bronchitic controls [3]: 60%
Viscosity (cps), AUC as a 100% compared to bronchitic controls [3]: 92.6%

Compound: COc1ccccc1OCC1SCCN1C(=O)CN (stereo not drawn) [3-glycinyl-2-(O-methoxyphenoxy)methyl-thiazolidine]
ED50 [4]: 3 to 30 mg/kg

EC50 [5]: 76 µM
Compound: Cn1c(=O)c2c(ncn2CC(O)CO)n(C)c1=O (stereo not drawn) [dihydroxypropyltheophylline, reference compound]

Compound: CCOC(=O)[C@@H]1CSC(COc2ccccc2OC)(COc2ccccc2OC)N1 [2,2-di(o-methoxyphenoxy)methyl-4-carbethoxythiazolidine]
ED50 [4]: 116 mg/kg

EC50 [5]: 190 µM
Compound: COc1ccccc1OCC1SCCN1C(=O)C=Cc1cc(CN2CCOCC2)c(O)c(OC)c1 (stereo not drawn) [3-(3'-morpholinomethyl-4'-hydroxy-3'-methoxy-cinnamoyl)-2-(O-methoxyphenoxy)methylthiazolidine hydrochloride]
spasmolytic activity (in words) [5]: favourably compares with that of dihydroxypropyltheophylline
activity relative to aminophylline in the resolution of bronchospasm [6]: 3-6 times

Compound: COc1ccccc1OCC1(COc2ccccc2OC)SCCN1C(=O)CSC(C)=O
duration of action ([2]; dog cough test): very prolonged action
duration of action relative to codeine phosphate ([2]; dog cough test, longer than codeine phosphate): 2-3 times
% inhibition of cough stimulus ([2]; dog, oral, dose not given): 13%
ED50 [4]: 230 mg/kg

Compound: COc1ccccc1OCC1SCCN1C(=O)CSC(C)=O (stereo not drawn) [2-(o-methoxyphenoxy)methyl-3-acetylthioacetylthiazolidine]
antitussive properties (in words) [1]: good antitussive activity
ED50 [1]: 77.1 mg/kg
ED50 ([1]; listed as 3-Acetylthioacetyl-2-(o-methoxyphenoxymethyl)thiazolidine): lower than 5 mg/kg
duration of action ([2]; dog cough test): more favourable duration of action in comparison to codeine
inhibition of the cough stimulus ([2]; dog, 20 mg/kg): 54.2%
Fucose (mg/ml), AUC as a 100% compared to bronchitic controls [3]: 151%
Galactose (mg/ml), AUC as a 100% compared to bronchitic controls [3]: 57%
Mucus production (ml/kg), AUC as a 100% compared to bronchitic controls [3]: 127%
Phospholipids (mg/ml), AUC as a 100% compared to bronchitic controls [3]: 37%
Protein (mg/ml), AUC as a 100% compared to bronchitic controls [3]: 78%
Sialic acid (mg/ml), AUC as a 100% compared to bronchitic controls [3]: 107%
Viscosity (cps), AUC as a 100% compared to bronchitic controls [3]: 59%
mucus regulating activity (in words) [3]: mucus regulating properties

Compound: COc1ccccc1OCC1SCCN1C(=O)OC(C)(C)C (stereo not drawn) [3-BOC-2-(O-methoxyphenoxy)-methyl-thiazolidine]
ED50 [4]: 3 to 30 mg/kg

Compound: COc1ccccc1OCC1SCCN1C(=O)CCNCCNCCO (stereo not drawn) [3-(3-(2-hydroxyethylamino)ethyl)aminopropanoyl-2-((O-methoxyphenoxy)methyl-thiazolidinebis maleate]
duration of action (antitussive) [2]: very prolonged duration of action
ED50 [4]: 3 to 6 mg/kg

Compound: COc1ccccc1OCC1SCCN1C(=O)Cn1ccnc1 (stereo not drawn) [3-(imidazol-1-yl)acetyl-2-(o-methoxyphenoxy)methyl-thiazolidine]
Fucose (mg/ml), AUC as a 100% compared to bronchitic controls [3]: 97.5%
Galactose (mg/ml), AUC as a 100% compared to bronchitic controls [3]: 21.8%
Mucus production (ml/kg), AUC as a 100% compared to bronchitic controls [3]: 162.5%
Phospholipids (mg/ml), AUC as a 100% compared to bronchitic controls [3]: 65.8%
Protein (mg/ml), AUC as a 100% compared to bronchitic controls [3]: 55.2%
Sialic acid (mg/ml), AUC as a 100% compared to bronchitic controls [3]: 63.8%
Viscosity (cps), AUC as a 100% compared to bronchitic controls [3]: 39.1%
mucus regulating activity (in words) [3]: strong mucus regulating activity
ED50 [4]: 40.6 mg/kg

Compound: C=CCOc1ccccc1OCC1SCCN1C(=O)CN (stereo not drawn)
ED50 [4]: 3 to 30 mg/kg

Compound: CCOC(=O)C(=O)N1CCSC1COc1ccccc1OC (stereo not drawn) [3-ethoxyoxalyl-2-(o-methoxyphenoxy)methyl-thiazolidine]
antitussive properties (in words) [1]: devoid of any antitussive properties
antitussive properties (in words) ([2]; dog cough test): devoid of any antitussive properties
Fucose (mg/ml), AUC as a 100% compared to bronchitic controls [3]: 149.3%
Galactose (mg/ml), AUC as a 100% compared to bronchitic controls [3]: 52.3%
Mucus production (ml/kg), AUC as a 100% compared to bronchitic controls [3]: 108.7%
Phospholipids (mg/ml), AUC as a 100% compared to bronchitic controls [3]: 59.8%
Protein (mg/ml), AUC as a 100% compared to bronchitic controls [3]: 62%
Sialic acid (mg/ml), AUC as a 100% compared to bronchitic controls [3]: 56.8%
Viscosity (cps), AUC as a 100% compared to bronchitic controls [3]: 65.1%

Compound: O=C(Cn1ccnc1)N1CCSC1COc1ccccc1O (stereo not drawn) [3-(imidazol-1'-yl)acetyl-2-[(o-hydroxyphenoxy)methyl]thiazolidone]
mucus regulating activity (in words) [3]: strong mucus regulating activity
ED50 [4]: 96 mg/kg

Compound: C#CCOc1ccccc1OCC1SCCN1C(=O)CCNCCNCCO (stereo not drawn)
duration of action (antitussive) [2]: very prolonged duration of action
ED50 [4]: 3 to 6 mg/kg

Compound: COc1ccccc1OCC1SCCN1C(=O)CNC(C)=O (stereo not drawn) [3-(N-acetylaminoacetyl)-2-(O-methoxyphenoxy)methyl-thiazolidine]
ED50 [4]: 3 to 30 mg/kg

Compound: CCOC(=O)[C@@H]1CSC(COc2ccccc2OC)N1C(=O)CSC(C)=O (stereo partly drawn) [4-carbethoxy-2-(o-methoxyphenoxy)methyl-3-acetylthioacetyl-thiazolidine]
Fucose (mg/ml), AUC as a 100% compared to bronchitic controls [3]: 111%
Galactose (mg/ml), AUC as a 100% compared to bronchitic controls [3]: 69%
Mucus production (ml/kg), AUC as a 100% compared to bronchitic controls [3]: 65%
Phospholipids (mg/ml), AUC as a 100% compared to bronchitic controls [3]: 102%
Protein (mg/ml), AUC as a 100% compared to bronchitic controls [3]: 79%
Sialic acid (mg/ml), AUC as a 100% compared to bronchitic controls [3]: 78%
Viscosity (cps), AUC as a 100% compared to bronchitic controls [3]: 91%
sedative effect, starting dose (mice): ≥ 30 mg/kg
LD50 (Acute toxicity in mice; ip): 670 mg/kg
LD50 (Acute toxicity in mice; po, os): 760 mg/kg

Compound: Cc1ccccc1OCC1SCCN1C(=O)Cn1ccnc1 (stereo not drawn) [2-tolyloxy-methyl-3-(imidazol-1'-yl)acetylthiazolidine]
antitussive properties (in words) [1]: not active in the cough tests
antitussive properties (in words) ([2]; dog cough test): not active in the cough tests
mucus regulating activity (in words) [3]: some mucus regulating action in the bronchitic rabbits, with a spectrum of action very close to that of carboxymethylcysteine
